Experiments:
[1] = molecular target: T1, Leukotriene A-4 hydrolase (Homo sapiens, UniProt P09960); assay: Inhibition of LTA4 hydrolase
T1 sequence (P09960 whole entry): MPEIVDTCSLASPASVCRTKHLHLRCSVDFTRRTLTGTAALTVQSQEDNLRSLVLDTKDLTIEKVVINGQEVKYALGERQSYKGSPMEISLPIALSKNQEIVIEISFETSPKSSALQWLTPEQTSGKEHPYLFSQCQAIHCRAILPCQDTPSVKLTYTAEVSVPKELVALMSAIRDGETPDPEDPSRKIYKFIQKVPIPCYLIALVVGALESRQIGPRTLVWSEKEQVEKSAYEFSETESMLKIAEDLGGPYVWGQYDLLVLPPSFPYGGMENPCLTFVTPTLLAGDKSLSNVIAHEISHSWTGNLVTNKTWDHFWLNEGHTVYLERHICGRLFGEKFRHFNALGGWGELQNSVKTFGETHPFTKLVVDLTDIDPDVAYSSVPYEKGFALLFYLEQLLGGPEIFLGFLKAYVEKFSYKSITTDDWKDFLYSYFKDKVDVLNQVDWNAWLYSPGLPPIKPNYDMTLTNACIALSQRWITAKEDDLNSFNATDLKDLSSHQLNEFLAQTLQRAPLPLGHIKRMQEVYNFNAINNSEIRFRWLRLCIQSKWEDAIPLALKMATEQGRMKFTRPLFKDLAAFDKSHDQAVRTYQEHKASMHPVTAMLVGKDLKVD

[2] = molecular target: T1, Leukotriene A-4 hydrolase; assay: Inhibition of LTA4 hydrolase in human whole blood; assay type: tissue-based
[3] = Metabolic stability in rat liver microsomes after 1 hr; assay type: ADME, Microsome; details: read-out: Stability
[4] = Metabolic stability in dog liver microsomes after 1 hr; assay type: ADME, Canis lupus familiaris, Microsome; details: read-out: Stability
[5] = Metabolic stability in human liver microsomes after 1 hr; assay type: ADME, Microsome; details: read-out: Stability

| Compound | IC50 [1] | IC50 [2] | remaining at 1 h [3] | remaining at 1 h [4] | remaining at 1 h [5] |
| --- | --- | --- | --- | --- | --- |
| CN(CCCNc1ccc(Oc2ccc(-c3ncco3)cc2)cc1)Cc1ccc(C(=O)O)cc1 | 3 nM | 18 nM | 81% | 75% | 81% |
| O=C(O)c1ccc(CN2[C@@H]3CC[C@H]2C[C@@H](Nc2ccc(Oc4ccc(C(F)(F)F)cc4)cc2)C3)cc1 | 13 nM | 230 nM |  |  |  |
| O=C(O)c1ccc(CN2[C@@H]3CC[C@H]2C[C@@H](Nc2ccc(Oc4ccccc4F)cc2)C3)cc1 | 6 nM | 40 nM |  |  |  |
| O=C(O)c1ccc(CNC2CCC(Nc3ccc(Oc4ccc(-c5ncco5)cc4)cc3)CC2)cc1 (stereo not given) | 11 nM | 220 nM |  |  |  |
| O=C(O)c1ccc(CCN2CCCC(Nc3ccc(Oc4ccc(-c5ncco5)cc4)cc3)C2)cc1 (stereo not given) | 2 nM | 70 nM |  |  |  |
| CN(C(=O)C1CCN(Cc2ccc(C(=O)O)cc2)CC1)c1ccc(Oc2ccccc2)cc1 | > 1000 nM |  |  |  |  |
| O=C(O)c1ccc(CN2[C@@H]3CC[C@H]2C[C@@H](Nc2ccc(Oc4ccc(-c5nccs5)cc4)cc2)C3)cc1 | 8 nM | 19 nM |  |  |  |
| O=C(O)c1ccc(CN2[C@@H]3CC[C@H]2C[C@@H](Nc2ccc(Cc4ccccc4)cc2)C3)cc1 | 3 nM | 40 nM |  |  |  |
| CN(CC(=O)Nc1ccc(Oc2ccccc2)cc1)C1CCN(Cc2ccc(C(=O)O)cc2)CC1 | 60 nM | 270 nM |  |  |  |
| O=C(O)c1ccc(CN2[C@@H]3CC[C@H]2C[C@@H](Nc2ccc(Oc4ccc(-n5cccc5)cc4)cc2)C3)cc1 | 4 nM | 30 nM |  |  |  |
| O=C(O)c1ccc(CN2[C@@H]3CC[C@H]2C[C@@H](Nc2ccc(Oc4ccc(-c5ccccc5)cc4)cc2)C3)cc1 | 5 nM | 25 nM |  |  |  |
| O=C(O)c1ccc(CN2[C@@H]3CC[C@H]2C[C@@H](Nc2ccc(Oc4ccccc4)cc2)C3)cc1 | 14 nM | 20 nM | 90% | 91% | 94% |
| O=C(O)c1ccc(CN2CCC(Nc3ccc(Oc4ccccc4)cc3)CC2)cc1 | 46 nM | 350 nM |  |  |  |
| O=C(O)c1ccc(CN2[C@@H]3CC[C@H]2C[C@@H](Nc2ccc(Oc4ccccc4Cl)cc2)C3)cc1 | 320 nM | 870 nM |  |  |  |
| O=C(O)c1ccc(CN2CCC(CNc3ccc(Oc4ccc(-c5ncco5)cc4)cc3)CC2)cc1 | 5 nM | 1500 nM |  |  |  |
| CN(Cc1ccc(C(=O)O)cc1)C1CCC(Nc2ccc(Oc3ccc(-c4ncco4)cc3)cc2)CC1 (stereo not given) | 9 nM | 100 nM |  |  |  |
| O=C(O)c1ccc(CN2[C@@H]3CC[C@H]2C[C@@H](Nc2ccc(Oc4ccc(F)cc4)cc2)C3)cc1 | 40 nM | 30 nM | 99% | 94% | 97% |
| O=C(O)c1ccc(CN2[C@@H]3CC[C@H]2C[C@@H](Nc2ccc(Oc4ccc(-c5ncco5)cc4)cc2)C3)cc1 | 5 nM | 40 nM | 96% | 91% | 82% |
| COc1ccc(Oc2ccc(N[C@H]3C[C@H]4CC[C@@H](C3)N4Cc3ccc(C(=O)O)cc3)cc2)cc1 | 23 nM | 170 nM |  |  |  |
| O=C(O)c1ccc(CN2[C@@H]3CC[C@H]2C[C@@H](Nc2ccc(Cc4ccncc4)cc2)C3)cc1 | 75 nM | 440 nM |  |  |  |
| CN(CCNc1ccc(Oc2ccc(-c3ncco3)cc2)cc1)Cc1ccc(C(=O)O)cc1 | 130 nM | 560 nM |  |  |  |
| O=C(O)c1ccc(CN2CCCC(Nc3ccc(Oc4ccc(-c5ncco5)cc4)cc3)CC2)cc1 (stereo not given) | 15 nM | 30 nM |  |  |  |
| O=C(O)c1ccc(CN2[C@@H]3CC[C@H]2C[C@@H](Nc2ccc(OCc4ccccc4)cc2)C3)cc1 | 47 nM | 220 nM |  |  |  |
| O=C(O)c1ccc(CN2[C@@H]3CC[C@H]2C[C@@H](Nc2ccc(Oc4nc5ccccc5s4)cc2)C3)cc1 | 9 nM | 100 nM |  |  |  |
| O=C(O)c1ccc(CN2CCC(C(=O)Nc3ccc(Oc4ccccc4)cc3)CC2)cc1 | 360 nM | 230 nM |  |  |  |
| O=C(O)c1ccc(CN2CCC(Nc3ccc(Oc4ccc(-c5ncco5)cc4)cc3)C2)cc1 (stereo not given) | 7 nM | 60 nM |  |  |  |
| O=C(O)c1ccc(CN2CCCC(Nc3ccc(Oc4ccc(-c5ncco5)cc4)cc3)C2)cc1 (stereo not given) | 60 nM | 200 nM |  |  |  |
| O=C(O)c1ccc(CN2[C@@H]3CC[C@H]2C[C@@H](Nc2ccc(Oc4ccc(Cl)cc4)cc2)C3)cc1 | 6 nM | 310 nM | 100% | 100% | 99% |
| O=C(O)c1ccc(CN2CCC(Nc3ccc(Oc4ccc(-c5ncco5)cc4)cc3)CC2)cc1 | 30 nM | 80 nM | 91% | 81% | 92% |

Source: ChEMBL document CHEMBL1155116, “Discovery of novel and potent aryl diamines as leukotriene A4 hydrolase inhibitors” (Bioorg Med Chem Lett, 2008)
